In US11453672B2, “Substituted pyrazolo[1,5-a]pyrimidines as tropomyosin receptor kinase inhibitors” (SHENZHEN TARGETRX, INC., priority 2017, dated 2022):

Tests used:
[1] = Metabolic stability evaluation, human liver microsomes; type: in vitro ADME; conditions: pH 7.4, 1 μM compound, 0.5 mg/mL protein, 37° C.; for microsomal CLint at 1 μM: read-out: human liver microsome CLint; for half-life at 1 μM: read-out: human liver microsome t1/2
Protocol: (§1) Microsomal experiments: human liver microsomes: 0.5 mg/mL, Xenotech; rat liver microsomes: 0.5 mg/mL, Xenotech; coenzyme (NADPH/NADH): 1 mM, Sigma Life Science; magnesium chloride: 5 mM, 100 mM phosphate buffer agent (pH 7.4).
(§2) Preparation of the stock solution: A certain amount of the powder of the example compounds was accurately weighed and dissolved to 5 mM with DMSO.
(§3) Preparation of phosphate buffer (100 mM, pH 7.4): 150 mL of pre-prepared 0.5 M potassium dihydrogen phosphate solution was mixed with 700 mL of pre-prepared 0.5 M dipotassium hydrogen phosphate solution, and the pH of the mixture was adjusted with 0.5 M dipotassium hydrogen phosphate solution to 7.4. It was diluted 5 times with ultrapure water before use, and magnesium chloride was added to obtain a phosphate buffer (100 mM) containing 100 mM potassium phosphate, 3.3 mM magnesium chloride, and a pH of 7.4.
(§4) A solution of NADPH regeneration system (containing 6.5 mM NADP, 16.5 mM G-6-P, 3 U/mL G-6-P D, 3.3 mM magnesium chloride) was prepared and placed on wet ice before use.
(§5) Preparation of stop solution: acetonitrile solution containing 50 ng/mL propranolol hydrochloride and 200 ng/mL tolbutamide (internal standard). 25057.5 μL of phosphate buffer (pH 7.4) was taken into a 50 mL centrifuge tube, 812.5 μL of human liver microsomes was added, and mixed uniformly to obtain a liver microsome dilution with a protein concentration of 0.625 mg/mL. 25057.5 μL of phosphate buffer (pH 7.4) was taken into a 50 mL centrifuge tube, and 812.5 μL of SD rat liver microsomes was added, and mixed uniformly to obtain a liver microsome dilution with a protein concentration of 0.625 mg/mL.
(§6) Incubation of the sample: The stock solutions of the corresponding compounds were diluted to 0.25 mM as working solutions with an aqueous solution containing 70% acetonitrile before use. 398 μL of human liver microsomes or rat liver microsome dilutions were added to 96-well incubation plates (N=2), and 2 μL of 0.25 mM working solutions were added and mixed uniformly, respectively.
(§7) Determination of metabolic stability: 300 μL of pre-cooled stop solution was added to each well of a 96-well deep well plate, which was placed on ice as a stop plate. The 96-well incubation plate and the NADPH regeneration system were placed in a 37° C. water bath, shaken at 100 rpm, and pre-incubated for 5 min. 80 μL of the incubation solution was removed from each well of the incubation plate, added to the stop plate, and mixed uniformly, and 20 μL of the NADPH regeneration system solution was supplemented as a sample at 0 min. Then, 80 μL of the NADPH regeneration system solution was added to each well of the incubation plate to start the reaction and the timing was started. […] 100 μL of the reaction solution was removed at 10, 30, and 90 min of the reaction, respectively, and added to the stop plate, and the reaction was terminated by vortexing for 3 min. The stop plate was centrifuged at 5000×g for 10 min at 4° C. 100 μL of the supernatant was removed into a 96-well plate to which 100 μL of distilled water was previously added, mixed uniformly, and sample analysis was performed by LC-MS/MS.
(§8) Data analysis: The peak areas of the corresponding compounds and the internal standard were detected by LC-MS/MS system, and the ratios of the peak areas of the compounds to the internal standard were calculated.

[2] = Metabolic stability evaluation, rat liver microsomes; type: in vitro ADME; conditions: SD, pH 7.4, 1 μM compound, 0.5 mg/mL protein, 37° C.; for microsomal CLint at 1 μM: read-out: rat liver microsome CLint; for half-life at 1 μM: read-out: rat liver microsome t1/2
Protocol: as §1, §2, §3, §4, §5, §6, §7, §8

[2H]C1([2H])C[C@H](O)C([2H])([2H])N1C(=O)Nc1cnn2ccc(N3CCC([2H])([2H])C3([2H])c3cc(F)ccc3F)nc12 (stereo in doubt) [Compound L-3, (S)—N-(5-((R)-2-(2,5-difluorophenyl)pyrrolidin-1-yl-2,3,3-d3)-pyrazolo[1,5-a]pyrimidin-3-yl)-3-hydroxypyrrolidine-2,2,5,5-d4-1-carboxamide]
microsomal CLint at 1 μM [1]: 19.1 µL/min/mg | half-life at 1 μM [1]: 1.21 h | microsomal CLint at 1 μM [2]: 16.8 µL/min/mg | half-life at 1 μM [2]: 1.38 h

[2H]C1([2H])C[C@H](O)C([2H])([2H])N1C(=O)Nc1cnn2ccc(N3CCC[C@@H]3c3cc(F)ccc3F)nc12 [Compound L-1, (S)—N-(5-((R)-2-(2,5-difluorophenyl)pyrrolidin-1-yl)-pyrazolo[1,5-a]pyrimidine-3-yl)-3-hydroxypyrrolidine-2,2,5,5-d4-1-carboxamide]
microsomal CLint at 1 μM [1]: 18.2 µL/min/mg | half-life at 1 μM [1]: 1.27 h | microsomal CLint at 1 μM [2]: 19.2 µL/min/mg | half-life at 1 μM [2]: 1.2 h

[2H]C1([2H])C[C@H](c2cc(F)ccc2F)N(c2ccn3ncc(NC(=O)N4CC[C@H](O)C4)c3n2)C1 [Compound L-4, (S)—N-(5-((R)-2-(2,5-difluorophenyl)pyrrolidin-1-yl-4,4-d2)pyrazolo[1,5-a]pyrimidin-3-yl)-3-hydroxypyrrolidine-1-carboxamide]
microsomal CLint at 1 μM [1]: 21 µL/min/mg | half-life at 1 μM [1]: 1.1 h

[2H]C1([2H])CC([2H])([2H])[C@@]([2H])(c2cc(F)ccc2F)N1c1ccn2ncc(NC(=O)N3CC[C@H](O)C3)c2n1 [Compound L-7, (S)—N-(5-((R)-2-(2,5-difluorophenyl)pyrrolidin-1-yl-2,3,3,5,5-d2)pyrazolo[1,5-a]pyrimidin-3-yl)-3-hydroxypyrrolidine-1-carboxamide]
microsomal CLint at 1 μM [1]: 20.6 µL/min/mg | half-life at 1 μM [1]: 1.12 h | microsomal CLint at 1 μM [2]: 15.8 µL/min/mg | half-life at 1 μM [2]: 1.46 h

O=C(Nc1cnn2ccc(N3CCC[C@@H]3c3cc(F)ccc3F)nc12)N1CC[C@H](O)C1 [LOXO-101, (S)—N-(5-((R)-2-(2,5-difluorophenyl)-pyrrolidin-1-yl)pyrazolo[1,5-a]pyrimidin-3-yl)-3-hydroxypyrrolidine-1-carboxamide, reference compound]
microsomal CLint at 1 μM [1]: 21.3 µL/min/mg | half-life at 1 μM [1]: 1.08 h | microsomal CLint at 1 μM [2]: 31.7 µL/min/mg | half-life at 1 μM [2]: 1.06 h
